# Measurements from patent publication US20160166560A1, “Urea Compounds and Their Use as FAAH Enzyme Inhibitors” (BIAL-PORTELA & Cª, S.A., priority 2013, published 2016).
# Where a name gives a salt, the structure may show the parent alone.
# How the values were obtained:
# [1] = biological target: T1, FAAH (Mus musculus, UniProt O08914); experiment: In vitro/ex vivo FAAH activity determination in liver after intra-tracheal instillation; parameters: Liver and brain fragments were removed and processed for enzymatic activity determination; from tissue; host or cells: mouse liver fragment homogenate; species or system male NMRI mice; details: remaining enzymatic activity vs controls
# T1 sequence (O08914 1-579): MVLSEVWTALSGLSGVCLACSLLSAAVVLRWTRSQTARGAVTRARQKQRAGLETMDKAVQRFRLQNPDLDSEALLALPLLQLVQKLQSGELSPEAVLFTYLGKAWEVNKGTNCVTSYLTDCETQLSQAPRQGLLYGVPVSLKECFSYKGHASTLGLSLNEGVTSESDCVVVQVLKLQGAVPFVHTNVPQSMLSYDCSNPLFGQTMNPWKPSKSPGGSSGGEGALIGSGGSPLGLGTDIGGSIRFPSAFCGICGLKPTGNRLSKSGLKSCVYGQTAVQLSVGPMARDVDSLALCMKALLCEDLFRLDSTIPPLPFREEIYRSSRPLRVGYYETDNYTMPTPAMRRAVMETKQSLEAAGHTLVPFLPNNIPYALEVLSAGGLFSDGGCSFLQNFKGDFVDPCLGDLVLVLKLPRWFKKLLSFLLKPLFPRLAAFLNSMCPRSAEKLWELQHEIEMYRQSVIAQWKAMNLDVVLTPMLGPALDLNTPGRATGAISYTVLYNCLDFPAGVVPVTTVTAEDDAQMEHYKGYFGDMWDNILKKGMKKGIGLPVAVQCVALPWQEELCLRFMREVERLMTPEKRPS
# Method: (§1) To evaluate the selectivity of test compounds in inhibiting FAAH activity, male NMRI mice were administrated following instillation with 1 mg/kg compound and were sacrificed after 8 h treatment. Liver and brain fragments were removed and processed for enzymatic activity determination.
# (§2) FAAH activity was measured as the amount of ^3H-ethanolamine formed, by liquid scintillation counting, from the hydrolysis of the substrate anandamide (AEA, labeled with ^3H on the ethanolamine part of the molecule). The percentage of remaining enzymatic activity was calculated in respect to controls and after blank subtraction. Therefore, a low value for the test compounds indicates a strong inhibitor.
# (§3) Male NMRI mice (body weight range: 25-35 g) were obtained from Harlan Laboratories (Barcelona, Spain). Animals were kept 10 per cage, under controlled environmental conditions (12 hr light [8 am]/12 hr dark [8 pm]cycle; room temperature 22±1° C.). Food and tap water were allowed ad libitum. Animals were habituated to the animal facilities at least for a week prior to experiments. The experiments were all carried out during daylight hours.
# (§4) Animals were fasted overnight before administration of compounds. […] After administration the animals were given atipamezole (1 mg/kg) to reverse the sedative and analgesic effects induced by the anaesthesia.
# (§5) Fifteen minutes before sacrifice, animals were anesthetized with pentobarbital 60 mg/kg administrated intra-peritoneally. The brain (without cerebellum) and a fragment of liver were collected into plastic vials containing membrane buffer (3 mM MgCl2, 1 mM EDTA, 50 mM Tris HCl, pH 7.4). Glass beads (2.5 mm BioSpec Products, Bartlesville, Okla., USA) were added to the vials containing the brain and liver tissues. Tissues were stored at −20° C. until analysis.
# (§6) Anandamide [ethanolamine-1-^3H-] was obtained from American Radiochemicals—with a specific activity of 60 Ci/mmol. All other reagents were obtained from Sigma-Aldrich. Optiphase Supermix was obtained from Perkin Elmer.
# (§7) Brain and liver tissues were thawed and homogenized in 10 volumes of membrane buffer (3 mM MgCl2, 1 mM EDTA, 50 mM Tris HCl, pH 7.4) with homogenizer Precellys 24 Dual Tissue Homogenizer (Bertin Technologies) for 2 cycles of 5 sec (5000 rpm).
# (§8) Total protein in the tissue homogenates was determined with the BioRad Protein Assay (BioRad) using a standard curve of BSA ([…]). Tissue homogenates were diluted to appropriate concentration for enzymatic determination in assay buffer (1 mM EDTA, 10 mM Tris HCl, pH 7.6).
# (§9) Reaction mix (total volume 200 μL) contained 2 μM AEA (2 μM AEA+5 nM ^3H-AEA), 0.1% fatty acid free BSA, 15 μg (brain) or 5 μg (liver) protein, in assay buffer (1 mM EDTA, 10 mM Tris pH 7.6).
# (§10) The test compound was used at a level of 1 mg/kg protein. After 15 minutes pre-incubation at 37° C. of the protein sample, reaction was started by the addition of the substrate solution (cold AEA+radiolabelled AEA+BSA). Reaction was carried out for 12 minutes for brain and liver tissues. Reaction was terminated by addition of 400 μL chloroform:methanol (1:1, v/v) solution. Reaction samples were vortex twice, left on ice for 5 minutes and then centrifuged in the microfuge for 7 minutes, 7000 rpm. 200 μL of the obtained supernatants were added to […] Optiphase Supermix scintillation cocktail previously distributed in 24-well plates.
# (§11) Counts per minute (cpm) were determined in a Microbeta TriLux scintillation counter. In each assay blank samples (without protein) were prepared.
# [2] = system: CYPs; experiment: CYPs metabolic stability assay in HLM (human liver microsomes); format: in vitro ADME; details: HLM 1 mg/ml protein, compound 5 μM, 60 min, 37° C.; for Control (% remain): absence of NADPH; for CYP+ (% remain): with NADPH 1 mM
# Method: Stability of the test compounds was performed in HLM (human liver microsomes) in the presence and in the absence of NADPH.
# The stability was measured using the incubation mixture (100 μl total volume) contained 1 mg/ml total protein, MgCl2 5 mM and 50 mM K-phosphate buffer. Samples were incubated in the presence and in the absence of NADPH 1 mM. Reactions were pre-incubated 5 min and the reaction initiated with the compound under test (at a concentration of 5 μM). Samples were incubated for 60 min in a shaking water bath at 37° C. The reaction was stopped by adding 100 μl of acetonitrile. Samples were then centrifuged, filtered and supematant injected in HLPC-MSD. Test compounds were dissolved in DMSO and the final concentration of DMSO in the reaction was below 0.5% (v/v). At T0 acetonitrile was added before adding the compound. All experiments were performed with samples in duplicate.
# [3] = biological target: T1, FAAH; experiment: In vitro/ex vivo FAAH activity determination in brain after intra-tracheal instillation; parameters: Liver and brain fragments were removed and processed for enzymatic activity determination; from tissue; species or system male NMRI mice; details: remaining enzymatic activity vs controls
# Method: as §1, §2, §3, §4, §5, §6, §7, §8, §9, §10, §11
# [4] = 1 mg/kg intra-tracheal instillation, sacrificed after 8 h
# [5] = 1 mg/kg intra-tracheal instillation, sacrificed after 8 h, hydrochloride, 1 mg/kg
# [6] = tested at 0.1 mg/kg rather than 1 mg/kg
Compound,"FAAH Activity - Liver itc (% C) [1, 4]",Control (% remain) [2],CYP+ (% remain) [2],"FAAH Activity - Brain itc (% C) [3, 4]","FAAH Activity - Liver itc (% C) [1, 5]","FAAH Activity - Brain itc (% C) [3, 5]",Control (% remain) ([2]; hydrochloride),CYP+ (% remain) ([2]; hydrochloride),"FAAH Activity - Liver itc (% C) [1, 6]","FAAH Activity - Brain itc (% C) [3, 6]"
"CN(C(=O)n1cnc(-c2cccc(OS(N)(=O)=O)c2)c1)C1CCN(Cc2ccccc2)CC1 [Example 7, 3-(1-((1-benzylpiperidin-4-yl)(methyl)carbamoyl)-1H-imidazol-4-yl)phenyl sulfamate hydrochloride]",3.5 % C,92.6 % remain,65.0 % remain,87.2 % C,,,,,,
"CN(C(=O)n1cnc(-c2cccc(NS(C)(=O)=O)c2)c1)C1CCN(Cc2ccccc2)CC1 [Example 1, N-(1-benzylpiperidin-4-yl)-N-methyl-4-(3-(methylsulfonamido)phenyl)-1H-imidazole-1-carboxamide hydrochloride]",3.2 % C,111.4 % remain,30.2 % remain,79.0 % C,,,,,,
"COc1cccc(CN2CCC(N(C)C(=O)n3cnc(-c4cccc(OS(N)(=O)=O)c4)c3)CC2)c1.Cl [Example 11, 3-(1-((1-(3-methoxybenzyl)piperidin-4-yl)(methyl)carbamoyl)-1H-imidazol-4-yl)phenyl sulfamate hydrochloride]",4.4 % C,100.0 % remain,5.9 % remain,84.2 % C,,,,,,
"COc1cc(CN2CCC(N(C)C(=O)n3cnc(-c4ccc(OS(N)(=O)=O)cc4)c3)CC2)cc(OC)c1 [Example 8, 4-(1-((1-(3,5-dimethoxybenzyl)piperidin-4-yl)(methyl)carbamoyl)-1H-imidazol-4-yl)phenyl sulfamate hydrochloride]",,,,,5.4 % C,97.6 % C,93.2 % remain,25.2 % remain,,
"COc1cccc(CN2CCC(N(C)C(=O)n3cnc(-c4ccc(OS(N)(=O)=O)cc4)c3)CC2)c1 [Example 14, 4-(1-((1-(3-methoxybenzyl)piperidin-4-yl)(methyl)carbamoyl)-1H-imidazol-4-yl)phenyl sulfamate hydrochloride]",6.0 % C,100.9 % remain,68.6 % remain,89.3 % C,,,,,,

# Results, then the compound that gave them:
"FAAH Activity - Liver itc (% C) [1, 4]",Control (% remain) [2],CYP+ (% remain) [2],"FAAH Activity - Brain itc (% C) [3, 4]","FAAH Activity - Liver itc (% C) [1, 5]","FAAH Activity - Brain itc (% C) [3, 5]",Control (% remain) ([2]; hydrochloride),CYP+ (% remain) ([2]; hydrochloride),"FAAH Activity - Liver itc (% C) [1, 6]","FAAH Activity - Brain itc (% C) [3, 6]",Compound
3.4 % C,97.6 % remain,76.8 % remain,93.3 % C,,,,,,,"CN(C(=O)n1cnc(-c2cccc(NC(N)=O)c2)c1)C1CCN(Cc2ccc3c(c2)OCO3)CC1.Cl [Example 18, N-(1-(benzo[d][1,3]dioxol-5-ylmethyl)piperidin-4-yl)-N-methyl-4-(3-ureidophenyl)-1H-imidazole-1-carboxamide hydrochloride]"
,101.4 % remain,17.0 % remain,,4.5 % C,96.9 % C,,,,,"CN(C(=O)n1cnc(-c2cccc(NC(N)=O)c2)c1)C1CCN(Cc2ccccc2)CC1 [Example 16, N-(1-benzylpiperidin-4-yl)-N-methyl-4-(3-ureidophenyl)-1H-imidazole-1-carboxamide hydrochloride]"
12.4 % C,97.7 % remain,81.4 % remain,124.3 % C,,,,,,,"COc1ccc(CN2CCC(N(C)C(=O)n3cnc(-c4cccc(NC(N)=O)c4)c3)CC2)cc1OC [Example 26, N-(1-(3,4-dimethoxybenzyl)piperidin-4-yl)-N-methyl-4-(3-ureidophenyl)-1H-imidazole-1-carboxamide hydrochloride]"
13.7 % C,97.8 % remain,64.8 % remain,107.1 % C,,,,,,,"CN(C(=O)n1cnc(-c2cccc(OS(N)(=O)=O)c2)c1)C1CCN(Cc2ccc3c(c2)OCO3)CC1 [Example 30, 3-(1-((1-(benzo[d][1,3]dioxol-5-ylmethyl)piperidin-4-yl)(methyl)carbamoyl)-1H-imidazol-4-yl)phenyl sulfamate hydrochloride]"
5.1 % C,98.3 % remain,68.6 % remain,86.8 % C,,,,,,,"CN(C(=O)n1cnc(-c2cccc(NS(N)(=O)=O)c2)c1)C1CCN(Cc2ccccc2)CC1 [Example 2, N-(1-benzylpiperidin-4-yl)-N-methyl-4-(3-(sulfamoylamino)phenyl)-1H-imidazole-1-carboxamide hydrochloride]"
5.7 % C,100 % remain,77.3 % remain,104.7 % C,,,,,,,"COc1ccc(CN2CCC(N(C)C(=O)n3cnc(-c4cccc(NS(C)(=O)=O)c4)c3)CC2)cc1OC [Example 5, N-(1-(3,4-dimethoxybenzyl)piperidin-4-yl)-N-methyl-4-(3-(methylsulfonamido)phenyl)-1H-imidazole-1-carboxamide hydrochloride]"
,115.2 % remain,14.2 % remain,,,,,,12.8 % C,96.0 % C,"COc1ccc(F)c(CN2CCC(N(C)C(=O)n3cnc(-c4cccc(C(N)=O)c4)c3)CC2)c1 [Example 32, 4-(3-carbamoylphenyl)-N-(1-(2-fluoro-5-methoxybenzyl)piperidin-4-yl)-N-methyl-1H-imidazole-1-carboxamide hydrochloride]"
